Assay results: patent US7538084B2, “Cyclosporins” (AMR Technology, Inc., priority 2003, dated 2009)

Assays:
human T-lymphocytes = details: mixed lymphocyte reaction assay in human T-lymphocytes
Description: (§1) The MLR assay was designed to measure ^3H-thymidine uptake by human lymphocytes or murine splenocytes that are undergoing cell proliferation in an immune response to allogeneic stimulation. The murine system uses the H2 disparate inbred mouse strains: Balb/c (H2^d) and C57B1/6 (H2^b).

murine splenocytes = test: one-way mixed lymphocyte reaction (MLR) assay, murine; type: cell-based, mouse
Method: as §1
Initial screens were done at a fixed value of 100 ng/ml test compound.

“Cyclosporin A Methyl Vinyl Ketone (IIIa) [Compound IIIa]” was tested, and the immunosuppressive activity (human T-lymphocytes) was “significant immunosuppressive activity”, the “IC50 (concentration inhibiting proliferation by 50% relative to control)” value (murine splenocytes; 3H-thymidine uptake, Balb/c responder splenocytes, γ-irradiated C57B1/6 stimulators, 7 point concentration-response curves) was 310 ng/mL and the immunosuppressive activity (murine splenocytes; mixed lymphocyte reaction assay in murine splenocytes) was “significant immunosuppressive activity”.
